Data set [1] is described as follows: Stability: accelerated ageing in aqueous solution at pH 3 and 70° C., remaining product by HPLC (half-life). In kind it is physicochemical. Particulars: pH 3, 70° C. The protocol: The stability of the compounds of the invention, in particular those containing the L-glutamyl residue, is very high and can in certain cases be about three hundred times greater than that of the compounds of the prior art.
The stability of the compounds of the prior art and those of the invention is measured using high performance liquid chromatography to determine the amount of product remaining after accelerated ageing in an acid medium (phosphate buffer at pH 3) and at high temperature (70° C.). Under these experimental conditions, measurement of the half-life (time corresponding to 50% degradation) makes it possible to evaluate the potential stability of the compounds tested in this way. A compound of low stability will have a very short half-life of only a few hours, whereas a very stable compound will have a half-life of several tens of days, as is the case, for example, of compounds (5) and (6) of the invention, which have a half-life of about 60 days (FIG. 1).

For data set [2] the following is noted: cited from earlier work.
The nature of data set [3]: Sweetening potency: taste comparison by a team of eight experienced people with a sucrose reference solution. Particulars: weight basis. How it is done: The sweetening potency of the compounds described in the Examples was evaluated by a team of eight experienced people. This is done by comparing the taste of the compounds, in aqueous solution at variable concentrations, with a 2%, 5 % or 10 % reference solution of sucrose. The sweetening potency of the test compound compared with sucrose then corresponds to the weight ratio between the compound and sucrose for equal sweetening intensity, i.e. when the sweet tastes of the solution of the test compound and the reference solution of sucrose are considered, by a majority of people, to have the same sweetening intensity.
Summary Table 3 below gives, by way of examples, a list of a few compounds obtained by experimental protocols similar to those described above, which those skilled in the art will easily find, together with their relative sweetening potency (SP), evaluated on a weight basis, compared with a 2% aqueous solution of sucrose. When the groups R1, R2 and R3 are different, the configuration of the asymmetric carbon to which they are bonded (carbon marked with an asterisk) is designated according to the conventional rules of stereochemistry using the R/S system: R, S or, when both configurations coexist in the same compound, RS.

The mark [4] stands for this setting: phosphate buffer, pH 3, accelerated ageing, read-out: half-life (converted).
Where [5] appears, read: Table 2, EP-A-0.338.946, sucrose concentration not stated.
Setting [6] is: prior art and aspartame, sucrose concentration not given.
Where [7] appears, read: phosphate buffer, pH 3, accelerated ageing, prior art compounds, read-out: half-life (converted).

The structures appear in SMILES notation. Like-named read-outs stand apart in the source and are kept apart here. Peptide text beside a SMILES is read from it.

The term half-life denotes the time in which the quantity being followed falls by half. In the case of `N#Cc1ccc(NC(=O)[C@H](CC(=O)O)NCc2ccccc2)cc1` [compound (4)], in data set [1] (setting [4]), the half-life is ~48 h. Also, the SP in data set [2] (setting [5]) is reported as 1000. In addition, the sweetening potency in data set [2] (setting [6]) was 1000 times that of sucrose.

With `N#Cc1ccc(NC(=O)[C@H](CC(=O)O)NC=O)cc1` [compound (2), reference compound], the half-life in data set [1] (setting [7]) was ~20 h. The sweetening potency in data set [2] (setting [6]) was 40 times that of sucrose. In the case of `N#Cc1ccc(NC(=O)[C@H](CC(=O)O)NC(=O)c2ccccc2)cc1` [compound (3)], the half-life in data set [1] (setting [7]) was ~8 h. The “sweetening potency (SP)” value in data set [2] (JP-A-87-252754, text, by comparison with a 5% solution of sucrose) is on record as 720 times that of sucrose. Besides, the SP in data set [2] (Table 1, JP-A-87-252754, by comparison with a 5% solution of sucrose) was 720 times that of sucrose. In addition, the sweetening potency in data set [2] (setting [6]) is 720 times that of sucrose. For `COC(=O)[C@H](Cc1ccccc1)NC(=O)[C@@H](N)CC(=O)O` [aspartame, reference compound] (H-Asp-Phe-OMe), the “stability (in words)” value in data set [1] (accelerated ageing) is reported as “relatively low stability”. In addition, the half-life in data set [1] (setting [4]) was 24 h. Moreover, in data set [2] (setting [6]), the sweetening potency is listed as 180 times that of sucrose. Turning to `C[C@@H](Oc1ccccc1)C(=O)N[C@@H](CCC(=O)O)C(=O)Nc1ccc(C#N)nc1` [Example 3, N-[(R)-2-phenoxypropanoyl]-alpha-L-glutamyl-5-aminopyridine-2-carbonitrile], in data set [1] (accelerated ageing), the “stability (in words)” value was “very high”. Further, the half-life in data set [1] (setting [4]) was ~1440 h. For the molecule `N#Cc1ccc(NC(=O)[C@H](CCC(=O)O)NCCCC2CCCCC2)cc1` [c-C6 H11 CH2 CH2 CH2/2/4-CN--C6 H4], in data set [2] (setting [5]), the SP is recorded as 7000.

As to `CCCCCN[C@@H](CC(=O)O)C(=O)Nc1ccc(C#N)cc1` [CH3 (CH2)3 CH2/1/4-CN--C6 H4], in data set [2] (setting [5]), the SP is 300.

As to `CCCCCCN[C@@H](CCC(=O)O)C(=O)Nc1ccc(C#N)cc1` [CH3 (CH2)4 CH2/2/4-CN--C6 H4], in data set [2] (setting [5]), the SP was 5000.

Regarding `CCC(CC)CN[C@@H](CC(=O)O)C(=O)Nc1ccc(C#N)cc1` [(CH3 CH2)2 CHCH2/1/4-CN--C6 H4], the SP in data set [2] (setting [5]) is recorded as 200. Consider `CCCCCCCCN[C@@H](CCC(=O)O)C(=O)Nc1ccc(C#N)cc1` [CH3 (CH2)6 CH2/2/4-CN--C6 H4], for which the SP in data set [2] (setting [5]) is given as 2000.

With `CCCC[C@H](C)C(=O)N[C@@H](CCC(=O)O)C(=O)Nc1ccc(C#N)nc1` [(5)], in data set [1] (accelerated ageing), the “stability (in words)” value is “high stability”. Further, the half-life in data set [1] (setting [4]) was ~1440 h. `CC=CC=CCN[C@@H](CCC(=O)O)C(=O)Nc1ccc(C#N)cc1` [CH3 CH=CHCH=CHCH2/2/4-CN--C6 H4]: the SP in data set [2] (setting [5]) was 2000. As for `N#Cc1ccc(NC(=O)[C@H](CCC(=O)O)NCCc2ccccc2)cc1` [C6 H5 CH2 CH2/2/4-CN--C6 H4], the SP in data set [2] (setting [5]) is 300.

As to `CCCC[C@H](C)C(=O)N[C@@H](CCC(=O)O)C(=O)Nc1ccc(C#N)cc1` [Example 4, N-[(S)-2-methylhexanoyl]-alpha-L-glutamyl-4-aminophenylcarbonitrile], the “stability (in words)” value in data set [1] (accelerated ageing) was “excellent”. For the same molecule, the half-life in data set [1] (setting [4]) is > 1440 h. Also, the “SP (relative sweetening potency)” value in data set [3] (Table 3, compared with a 2% aqueous solution of sucrose) worked out at 9000. Besides, the sweetening potency in data set [3] (by comparison with a 2% solution of sucrose) is reported as ~9000 times that of sucrose. Turning to `CC(N[C@@H](CC(=O)O)C(=O)Nc1ccc(C#N)cc1)C1CCCCC1` (stereo partly drawn) [c-C6 H11 CH(CH3)/1/4-CN--C6 H4], in data set [2] (setting [5]), the SP is recorded as 200.

Consider `N#Cc1ccc(NC(=O)[C@H](CCC(=O)O)NCCCc2ccccc2)cc1` [C6 H5 CH2 CH2 CH2/2/4-CN--C6 H4], for which, in data set [2] (setting [5]), the SP is reported as 800. For the molecule `N#Cc1ccc(NC(=O)[C@H](CC(=O)O)NC(=O)C(F)(F)F)cc1` [compound (1)], the half-life in data set [1] (setting [7]) is ~15 h. The sweetening potency in data set [2] (setting [6]) was 3000 times that of sucrose; in data set [2] (prior art, by comparison with a 2% solution of sucrose) it was 3000 times that of sucrose. For `CCCCCCCN[C@@H](CC(=O)O)C(=O)Nc1ccc(C#N)cc1` [CH3 (CH2)5 CH2/1/4-CN--C6 H4], the SP in data set [2] (setting [5]) is recorded as 2000.

On to `CC(CCN[C@@H](CCC(=O)O)C(=O)Nc1ccc(C#N)cc1)c1ccccc1` (stereo partly drawn) [C6 H5 CH(CH3)CH2 CH2/2/4-CN--C6 H4], for which, in data set [2] (setting [5]), the SP is on record as 400. Take `O=C(O)C[C@H](NC(=O)C(F)(F)F)C(=O)Nc1cccnc1` [Y=H, X=CF3 CO]: in data set [2] (setting [6]), the sweetening potency is given as 40 times that of sucrose.

Consider `N#Cc1ccc(NC(=O)[C@H](CC(=O)O)NCC2CCCCC2)cc1` [c-C6 H11 CH2/1/4-CN--C6 H4], for which the SP in data set [2] (setting [5]) was 200. On to `N#Cc1ccc(NC(=O)[C@H](CCC(=O)O)NCc2ccccc2)cc1` [C6 H5 CH2/2/4-CN--C6 H4], for which the SP in data set [2] (setting [5]) is reported as 20. Take `CCCCC(C)(C)C(=O)N[C@@H](CCC(=O)O)C(=O)Nc1ccc(C#N)nc1` [Example 2, N-(2,2-dimethylhexanoyl)-alpha-L-glutamyl-5-aminopyridine-2-carbonitrile]: the “stability (in words)” value in data set [1] (accelerated ageing) is recorded as “excellent”. Also, the half-life in data set [1] (setting [4]) is ~1680 h. For the molecule `CCCC[C@H](C)C(=O)N[C@@H](CCC(=O)O)C(=O)Nc1ccc(C#N)nc1` [Example 1, N-[(S)-2-methylhexanoyl]-alpha-L-glutamyl-5-aminopyridine-2-carbonitrile], in data set [1] (accelerated ageing), the half-life entry is “about 60 days” and the “stability (in words)” value is on record as “excellent”.

`N#Cc1ccc(NC(=O)[C@H](CC(=O)O)NCCc2ccccc2)cc1` [C6 H5 CH2 CH2/1/4-CN--C6 H4]: the SP in data set [2] (setting [5]) was 300. Consider `N#Cc1ccc(NC(=O)[C@H](CCC(=O)O)NCC=Cc2ccccc2)cc1` [C6 H5 CH=CHCH2/2/4-CN--C6 H4], for which, in data set [2] (setting [5]), the SP is given as 2000.

In the case of `CCCCCCCCN[C@@H](CC(=O)O)C(=O)Nc1ccc(C#N)cc1` [CH3 (CH2)6 CH2/1/4-CN--C6 H4], the SP in data set [2] (setting [5]) is on record as 400. With `CCCCCCN[C@@H](CC(=O)O)C(=O)Nc1ccc(C#N)cc1` [CH3 (CH2)4 CH2/1/4-CN--C6 H4], in data set [2] (setting [5]), the SP is listed as 600. With `CCCC(C)CN[C@@H](CCC(=O)O)C(=O)Nc1ccc(C#N)cc1` (stereo partly drawn) [CH3 (CH2)2 CH(CH3)CH2/2/4-CN--C6 H4], the SP in data set [2] (setting [5]) is recorded as 5000. For `O=C(O)C[C@H](NC(=O)C(Cl)(Cl)Cl)C(=O)Nc1cccnc1` [Y=H, X=CCl3 CO], the sweetening potency in data set [2] (setting [6]) was 1 times that of sucrose. Take `CCCCCCCN[C@@H](CCC(=O)O)C(=O)Nc1ccc(C#N)nc1` [CH3 (CH2)5 CH2/2/2-CN-pyrid-5-yl]: the SP in data set [2] (setting [5]) is 4000. For `CCCCCCCN[C@@H](CCC(=O)O)C(=O)Nc1ccc(C#N)cc1` [CH3 (CH2)5 CH2/2/4-CN--C6 H4], the SP in data set [2] (setting [5]) is reported as 7000. As for `CCCCCN[C@@H](CCC(=O)O)C(=O)Nc1ccc(C#N)cc1` [CH3 (CH2)3 CH2/2/4-CN--C6 H4], the SP in data set [2] (setting [5]) was 1500.

Regarding `CC(C)CCN[C@@H](CC(=O)O)C(=O)Nc1ccc(C#N)cc1` [(CH3)2 CHCH2 CH2/1/4-CN--C6 H4], the SP in data set [2] (setting [5]) is 100.

(Values after patent US5374733A, “Sweetening agent derived from L-aspartic or L-glutamic acid” (priority 1989, dated 1994).)
